Assay results as given in PMC12775124, “CUL4A-DDB1-DCAF10 is an N-recognin for N-terminally acetylated Src kinases” (Nature Communications, 2026).
Where a SMILES comes first, the peptide text is derived from it. The star is where a group is joined. Cbz = O=C(OCc1ccccc1)*

How the values were obtained:
[1] = system: Lyn; assay: Lyn turnover, cycloheximide / MG132; type: cell-based, human; details: HeLa, n = 3
Method: (§1) To assess this, HeLa cells were transfected with NMT1/2 siRNA or left untreated and analysed after addition of cycloheximide (8 h) to block protein synthesis or MG132 (4 h) to inhibit proteasomal degradation.
(§2) 124 Supplementary Fig. 5. NMT1/2 knockdown leads to an increased turnover of SFKs
(§3) 125 and overexpression of DCAF10 reduces SFK levels after NMT1/2 knockdown. […]
(§4) 130 overexpression. Untreated: purple; with NMT1/2 RNAi: blue. Individual data points are
(§5) 131 indicated (n = 2 or 3 independent biological replicates). MG132 = proteasome inhibitor;
(§6) 132 CHX = cycloheximide translational inhibitor. d) HeLa cells were treated for 72 h with and
(§7) 133 without NMT1/2 siRNA and treated with cycloheximide or MG132 for the indicated
(§8) 134 periods of time. Representative WBs are shown. Filled circles indicate treatment; empty
(§9) 135 circles indicate no treatment. e-h) Fold-change analysis of protein expression levels under
(§10) 136 the indicated conditions. Left: fold change after 8 h cycloheximide treatment of (e) Lyn,
(§11) 137 (f) Fyn, (g) Src and (h) THOC7. […]
(§12) 413 knockdown, the transfection reagent Lipofectamine RNAiMAX (Invitrogen, Thermo
(§13) 414 Fisher Scientific, Waltham, MA, USA) was used at a final dilution of 1:333 (3 μL/mL of
(§14) 415 medium). Pools of siRNAs, including siNMT1, siNMT2, siDCAF10, siZYG11B, and
(§15) 416 siZER1, or combinations of different siRNAs, were reverse transfected at a concentration […]

[2] = system: Fyn; assay: Fyn turnover, cycloheximide / MG132; type: cell-based, human; details: HeLa, n = 3
Method: as §1, §2, §3, §4, §5, §6, §7, §8, §9, §10, §11
410 HeLa, DLD-1 and all thereof derived stable cell lines, and RPE-1 cells were grown in
412 serum (FBS). Cells were counted and diluted to 100,000 cells/mL. For siRNA
as §12, §13
415 medium). […]

[3] = system: Src; assay: Src turnover, cycloheximide / MG132; type: cell-based, human; details: HeLa, n = 3
Method: as §1, §2, §3, §4, §5, §6, §7, §8, §9, §10, §11, §12, §13, §14, §15

[4] = system: THOC7; assay: THOC7 turnover, cycloheximide / MG132; type: cell-based, human; details: NMT1/2 KD, HeLa, n = 3, 'unaffected'
Method: as §1, §2, §3, §4, §5, §6, §7, §8, §9, §10, §11, §12, §13, §14, §15

[5] = system: ZYG11B; assay: Peptide pull-down with quantitative MS, HeLa lysate, ZYG11B; type: binding, human (HeLa); details: Nt-Ac vs Nt-free peptides
Method: Biotinylated 10-mer Nt-peptides (Nt-free, Nt-acetylated, and, where indicated, Nt-myristoylated; sequences in Supplementary Table 1) were synthesized with a C-terminal Lys3 spacer and biotin, immobilized on magnetic streptavidin beads, and incubated with HeLa or mouse liver lysates. After standardized washes, bound proteins were on-bead reduced/alkylated, digested with LysC/trypsin, desalted, and analysed by LC-MS in DIA mode (Orbitrap Exploris 480) as described previously. Variants included endogenous Nt-sequences, swap and mutant (Ala-Ala-Ala or Nt-amino acids) peptides, and pairwise comparisons of conditions of interest. Full buffer compositions, bead loading, wash schemes, and MS parameters are provided in the Supplementary Methods.
203 Supplementary Methods
205 Peptide sequences are listed in Supplementary Table 1. Peptide pull-downs were
Briefly, magnetic streptavidin beads (DynabeadsTM
Beads were then washed three times with PBS. After
210 washing, 1 mg of HeLa lysates or 2 mg of liver lysates was taken, and lysis buffer (75
Lysates were incubated with streptavidin
HeLa pull-downs were washed twice with lysis buffer and twice
Liver pulldowns were washed twice with cold low salt buffer (50 mM
220 individually ventilated cages under a 12-h light/dark cycle and were provided with sterile
All procedures were performed
No animal procedures were performed specifically for this […]

[6] = system: Lyn; assay: In vitro ubiquitination of immunoprecipitated Lyn; type: biochemical, human; details: 250 nM E3 complex, 1 h 30°C, Ub normalized to bait, n = 3
Source text: (§16) Having established cellular regulation by DCAF10 under reduced N-myristoylation, we aimed to test whether CUL4A-DDB1-DCAF10 directly ubiquitinates SFKs. […] As we expect NMT1/2 depletion to cause a destabilization of SFKs, their equal or even greater ubiquitination in IPs from untreated cells relative to NMT1/2-depleted cells was unanticipated. We speculate that (i) Nt-acetylated SFKs may degrade rapidly, preventing their accumulation upon NMT1/2 depletion; (ii) an acetylated fraction of SFKs may exist under physiological conditions; (iii) DCAF10 might recognize additional surfaces.
(§17) Reactions contained E1, UBCH5B (E2), ubiquitin, Mg-ATP in ligation buffer and were incubated with bead-bound substrates, followed by washing and immunoblot detection of ubiquitinated species (anti-ubiquitin), with loading controls (anti-Lyn, -Fyn, -Src or -GFP) (n = 3 independent enzymatic assays). Complete reagent lists, complex preparation, substrate IP conditions, wash buffers, and gel/blot parameters are provided in the Supplementary Methods and Tables.
(§18) 357 (v/v) glycerol, 2 mM TCEP, supplemented with Protease Inhibitor Cocktail), and lysed
(§19) 358 by sonication. Lysates were cleared by centrifugation at 28,000 rpm for 45 min at 4 °C […]
(§20) 382 EDTA, and loaded on a gradient gel (4–15%). Ubiquitination of substrates was assessed
(§21) 383 by WB using an anti-ubiquitin antibody. Equal substrate loading was evaluated by anti- […]

[7] = system: Fyn; assay: In vitro ubiquitination of immunoprecipitated Fyn; type: biochemical, human; details: 250 nM E3 complex, n = 3
Source text: as §16, §17, §18, §19, §20, §21

[8] = system: Src; assay: In vitro ubiquitination of immunoprecipitated Src; type: biochemical, human; details: 250 nM E3 complex, n = 3
Source text: as §16, §17, §18, §19, §20, §21

[9] = cycloheximide 100 µg/mL 8 h, NMT1/2 KD relative to cycloheximide-treated control
[10] = IP from NMT1/2-depleted HeLa cells

Molecule `CC(C)C[C@@H](C=O)NC(=O)[C@H](CC(C)C)NC(=O)[C@H](CC(C)C)NC(=O)OCc1ccccc1` [MG132] (Cbz-Leu-Leu-Leu-aldehyde) has a Lyn increase ([1]; MG132 10 µM 4 h, NMT1/2 KD) of 1.6 fold, a Fyn increase ([2]; MG132 10 µM 4 h, NMT1/2 KD) of 1.6 fold and a Src increase ([3]; MG132 10 µM 4 h, NMT1/2 KD) of 2 fold. For the same molecule, the THOC7 increase ([4]; MG132 10 µM 4 h) was 1.1 fold.
`C[C@@H]1C[C@@H]([C@H](O)CC2CC(=O)NC(=O)C2)C(=O)[C@@H](C)C1` [Cycloheximide] showed a Lyn decrease [1, 9] of 2 fold, a Fyn decrease [2, 9] of 1.5 fold and a Src decrease [3, 9] of 1.3 fold. It also gave a THOC7 decrease ([4]; cycloheximide 100 µg/mL 8 h) of 1.1 fold.
In the case of “GAPATRRCVEKK [Nt-free TMEM97, Nt-peptide of TMEM97, Nt-free]”, the “ZYG11B binding (in words)” value [5] is reported as “ZYG11B binding only to the Nt-free peptide of TMEM97”.
“WT: catalytically active E3 ligase complex of full-length CUL4A, DDB1, DCAF10 and RBX1” was tested, and the “Lyn ubiquitination, ratio relative to RBX1^mut” value [6, 10] was 2.18 fold, the “Lyn ubiquitination, ratio relative to RBX1^mut” value ([6]; IP from control HeLa cells) was 2.58 fold and the “Fyn ubiquitination, ratio relative to RBX1^mut” value [7, 10] was 2.27 fold. For the same molecule, the “Fyn ubiquitination, ratio relative to RBX1^mut” value ([7]; IP from control HeLa cells) was 2.73 fold, the “Src ubiquitination, ratio relative to RBX1^mut” value [8, 10] was 2.03 fold and the “Src ubiquitination, ratio relative to RBX1^mut” value ([8]; IP from control HeLa cells) was 3.0 fold.
